The text below walks through data of patent publication US20240376085A1 (Janssen Pharmaceutica NV, priority 2021, published 2024).

Assay [1] deals with IL-17A-induced G-CSF production in human normal keratinocyte (NHK). The assay can be described thus: NHK assay: IL-17A-induced G-CSF production in normal human keratinocytes. The class given is cell-based. To be noted: IL-17A 5 ng/mL, 24 h, average if tested more than once. The essentials:
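Stimulus rhIL-17A 5 ng/mL final, premixed 1 h rt with compound; adult NHK, 5% FBS, 0.2% DMSO. Viability by CellTiter-Glo vs DMSO.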

The target of the next assay is T1, IL-17A : IL-17RA binding (Homo sapiens, UniProt Q16552, K93Q).
T1 construct: Name: IL-17A-Flag
The assay can be described thus: IL-17A(FLAG-tagged):IL-17RA(His-tagged) binding disruption Eu-HTRF assay, Protocol 1. To be noted: FLAG-IL-17A 2.5 nM at 2x final concentration; average if tested more than once. The essentials: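 IC50 came from a one-site competition fit of the acceptor/donor (665/620 nm) HTRF ratio. His-tagged IL-17RA, Eu-anti-FLAG and D2-anti-His were added after a 1 h rt compound preincubation with FLAG-tagged IL-17A dimer in PBS/0.01% Triton X-100, followed by 2 h at rt before reading.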

T1 sequence (Q16552 with tags, fused parts or gaps K93Q): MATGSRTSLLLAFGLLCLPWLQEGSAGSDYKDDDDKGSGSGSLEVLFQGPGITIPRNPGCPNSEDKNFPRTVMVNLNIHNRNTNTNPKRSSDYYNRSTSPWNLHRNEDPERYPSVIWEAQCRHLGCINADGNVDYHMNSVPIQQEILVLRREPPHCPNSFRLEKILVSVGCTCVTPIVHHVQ

As a reminder, the IC50 is the point on the concentration scale where inhibition reaches its midpoint. `CC(C)n1nccc1C(=O)N[C@H](c1nc2ccc([C@@H](C)NC(=O)CC(C)C(F)(F)F)cc2[nH]1)C1CCC(F)(F)CC1` (single isomer, unassigned) [Example 139, N—((S)-(4,4-Difluorocyclohexyl)(6-((R)-1-((S*)-4,4,4-trifluoro-3-methylbutanamido)ethyl)-1H-benzo[d]imidazol-2-yl)methyl)-1-isopropyl-1H-pyrazole-5-carboxamide]: the IC50 in assay [1] was under 50 nM; at IL-17A : IL-17RA binding it was over 100 nM.

Turning to `C[C@@H](NC(=O)CCC(F)(F)F)c1ccc2[nH]c(C(CC(C)(C)C(F)(F)F)NC(=O)c3cnn(CCC(F)(F)F)n3)nc2c1` (single isomer, unassigned) [Example 219, N—((S*)-4,4,4-Trifluoro-3,3-dimethyl-1-(5-((R)-1-(4,4,4-trifluorobutanamido)ethyl)-1H-benzo[d]imidazol-2-yl)butyl)-2-(3,3,3-trifluoropropyl)-2H-1,2,3-triazole-4-carboxamide], the IC50 was over 100 nM in assay [1] (Homo sapiens, Keratinocyte) and over 100 nM at IL-17A : IL-17RA binding.

For `CC(C)CC(NC(=O)CCC(F)(F)F)c1ccc2[nH]c([C@@H](NC(=O)c3ccnn3C)C3CCC(F)(F)CC3)nc2c1` (single isomer, unassigned) [Example 48, N—((S)-(4,4-Difluorocyclohexyl)(5-((S*)-3-methyl-1-(4,4,4-trifluorobutanamido)butyl)-1H-benzo[d]imidazol-2-yl)methyl)-1-methyl-1H-pyrazole-5-carboxamide], the IC50 in assay [1] (Homo sapiens, Keratinocyte) is over 100 nM; at IL-17A : IL-17RA binding, over 100 nM.

For the molecule `Cc1c(C(=O)NC(CC(C)(C)C(F)(F)F)c2nc3cc([C@@H](C)NC(=O)CCC(F)(F)F)ccc3[nH]2)cnn1CC(F)(F)F` (stereo in doubt) [Example 223, 5-Methyl-N—((S*)-4,4,4-trifluoro-3,3-dimethyl-1-(5-((R)-1-(4,4,4-trifluorobutanamido)ethyl)-1H-benzo[d]imidazol-2-yl)butyl)-1-(2,2,2-trifluoroethyl)-1H-pyrazole-4-carboxamide], the IC50 was over 100 nM in assay [1] (Homo sapiens, Keratinocyte) and over 100 nM at IL-17A : IL-17RA binding.

For the molecule `C[C@@H](NC(=O)CCC(F)(F)F)c1ccc2[nH]c([C@@H](NC(=O)c3ccn(CCC(F)(F)F)n3)C3CCC(F)(F)CC3)nc2c1` [Example 2, N—[(S)-(4,4-Difluorocyclohexyl)-[6-[(1R)-1-(4,4,4-trifluorobutanoylamino)ethyl]-1H-benzimidazol-2-yl]methyl]-1-(3,3,3-trifluoropropyl)pyrazole-3-carboxamide], the IC50 is over 100 nM in assay [1] (Homo sapiens, Keratinocyte) and over 100 nM on IL-17A : IL-17RA binding.

As to `CC(C)n1nccc1C(=O)N[C@@H](COC(C)(C)C(F)(F)F)c1nc2cc([C@H](NC(=O)CC3CC(F)(F)C3)C3CC3)ccc2[nH]1` [Example 160, N—((R)-1-(5-((R)-Cyclopropyl(2-(3,3-difluorocyclobutyl)acetamido)methyl)-1H-benzo[d]imidazol-2-yl)-2-((1,1,1-trifluoro-2-methylpropan-2-yl)oxy)ethyl)-1-isopropyl-1H-pyrazole-5-carboxamide], the concentration for half-maximal inhibition (IC50) in assay [1] (Homo sapiens, Keratinocyte) is under 50 nM; on IL-17A : IL-17RA binding, under 50 nM.

Consider `CC(C)n1nccc1C(=O)N[C@H](c1nc2ccc([C@H](NC(=O)CC3CC(F)(F)C3)C3CC3)cc2[nH]1)[C@@H]1C[C@H]2C[C@H]2C1` [Example 255, N—((S)-((1R,3s,5S)-Bicyclo[3.1.0]hexan-3-yl)(6-((R)-cyclopropyl(2-(3,3-difluorocyclobutyl)acetamido)methyl)-1H-benzo[d]imidazol-2-yl)methyl)-1-isopropyl-1H-pyrazole-5-carboxamide], for which the IC50 in assay [1] (Homo sapiens, Keratinocyte) is under 50 nM; at IL-17A : IL-17RA binding it was 50 to 100 nM.

With `C[C@@H](NC(=O)CCC(F)(F)F)c1ccc2[nH]c([C@@H](NC(=O)c3cnnn3CCOC(F)(F)F)C3CCC(F)(F)CC3)nc2c1` [Example 36, N—[(S)-(4,4-Difluorocyclohexyl)-[6-[(1R)-1-(4,4,4-trifluorobutanoylamino)ethyl]-1H-benzimidazol-2-yl]methyl]-3-[2-(trifluoromethoxy)ethyl]triazole-4-carboxamide], the IC50 is 50 to 100 nM in assay [1] (Homo sapiens, Keratinocyte) and over 100 nM at IL-17A : IL-17RA binding.

`Cc1nonc1C(=O)N[C@@H](CO[C@H](C)C(F)(F)F)c1nc2ccc([C@H](NC(=O)CC3CC(F)(F)C3)C3CC3)cc2[nH]1` (relative stereo) [Example 150, N—((R*)-1-(6-((R)-Cyclopropyl(2-(3,3-difluorocyclobutyl)acetamido)methyl)-1H-benzo[d]imidazol-2-yl)-2-(((R*)-1,1,1-trifluoropropan-2-yl)oxy)ethyl)-4-methyl-1,2,5-oxadiazole-3-carboxamide]: the IC50 in assay [1] (Homo sapiens, Keratinocyte) was over 100 nM; on IL-17A : IL-17RA binding it was over 100 nM.

As to `CC(C)n1nccc1C(=O)N[C@@H](c1nc2ccc([C@H](NC(=O)CC3CC(F)(F)C3)C3CC3)cc2[nH]1)[C@@H]1CCCCO1` (relative stereo) [Example 251, N—((S*)-(6-((R)-Cyclopropyl(2-(3,3-difluorocyclobutyl)acetamido)methyl)-1H-benzo[d]imidazol-2-yl)((S*)-tetrahydro-2H-pyran-2-yl)methyl)-1-isopropyl-1H-pyrazole-5-carboxamide], the IC50 was over 100 nM in assay [1] (Homo sapiens, Keratinocyte) and over 100 nM at IL-17A : IL-17RA binding.

With `CC(C)c1oncc1C(=O)N[C@H](c1nc2cc([C@@H](C)NC(=O)CCC(F)(F)F)ccc2[nH]1)C1CCC(F)(F)CC1` [Example 202, N—((S)-(4,4-Difluorocyclohexyl)(5-((R)-1-(4,4,4-trifluorobutanamido)ethyl)-1H-benzo[d]imidazol-2-yl)methyl)-5-isopropylisoxazole-4-carboxamide], the IC50 in assay [1] (Homo sapiens, Keratinocyte) was under 50 nM; on IL-17A : IL-17RA binding, under 50 nM.

On to `CC(C)c1nonc1C(=O)NC(CC(C)(C)C(F)(F)F)c1nc2cc([C@@H](C)NC(=O)CCC(F)(F)F)ccc2[nH]1` (single isomer, unassigned) [Example 57, 4-Isopropyl-N—((S*)-4,4,4-trifluoro-3,3-dimethyl-1-(5-((R)-1-(4,4,4-trifluorobutanamido)ethyl)-1H-benzo[d]imidazol-2-yl)butyl)-1,2,5-oxadiazole-3-carboxamide], for which the half-inhibitory concentration (IC50) in assay [1] (Homo sapiens, Keratinocyte) was under 50 nM; at IL-17A : IL-17RA binding it was under 50 nM.

For `CC(C)c1scnc1C(=O)N[C@H](c1nc2cc([C@@H](C)NC(=O)CCC(F)(F)F)ccc2[nH]1)C1CCC(F)(F)CC1` [Example 200, N—((S)-(4,4-Difluorocyclohexyl)(5-((R)-1-(4,4,4-trifluorobutanamido)ethyl)-1H-benzo[d]imidazol-2-yl)methyl)-5-isopropylthiazole-4-carboxamide], the IC50 in assay [1] (Homo sapiens, Keratinocyte) lay within 50 to 100 nM; on IL-17A : IL-17RA binding, 50 to 100 nM.

As to `CC(C)n1nccc1C(=O)N[C@H](c1nc2ccc([C@H](NC(=O)CC3CC(F)(F)C3)C3CC3)cc2[nH]1)C1CCC(F)(F)CO1` (single isomer, unassigned) [Example 262, N—((R)-(6-((R)-Cyclopropyl(2-(3,3-difluorocyclobutyl)acetamido)methyl)-1H-benzo[d]imidazol-2-yl)((R*)-5,5-difluorotetrahydro-2H-pyran-2-yl)methyl)-1-isopropyl-1H-pyrazole-5-carboxamide], the concentration for half-maximal inhibition (IC50) in assay [1] was under 50 nM; on IL-17A : IL-17RA binding it was over 100 nM.
